Assay results published in patent US20160184246A1, “TRANSDERMAL DRUG DELIVERY SYSTEMS FOR AGOMELATINE” (Noven Pharmaceuticals, Inc., priority 2014, published 2016).
≈ marks a conversion by molar mass, not a printed value.

Tests used:
[1] = Solubility of agomelatine in water or aqueous isopropanol (IPA); format: physicochemical; conditions: 32° C.
Method: The solubility of agomelatine in water or different concentrations of aqueous isopropanol (IPA) was assessed. As shown in the table below, the solubility of agomelatine in aqueous IPA solutions increased with increasing IPA content. Agomelatine was formulated at its saturation concentration in different concentrations of aqueous IPA and drug flux through human cadaver skin was assessed using a modified Franz-cell apparatus, using 0.1 mL solution per cm^2.

[2] = Pharmacokinetics of oral agomelatine (background); format: in vivo, human; conditions: current commercial oral dosage, humans
Method: Oral dosage forms (tablets) of agomelatine have been approved in Europe under the trade names Valdoxan, Melitor, and Thymanax. Each tablet contains 25 mg agomelatine, prescribed at an initial dose of 1 tablet taken at bedtime, which dose may be increased to 2 tablets (50 mg) as needed. Oral agomelatine is well absorbed (although greater in women than in men), however, oral bioavailability is only 5% with large variations. The limited bioavailability is believed to be due to heavy first-pass liver metabolism, predominantly by cytochrome CYP1A2 of the P450 isoenzyme system, which results in conjugated metabolites of hydroxylated and demethylated agomelatine. […] The agomelatine oral tablet product produces a human plasma concentration-time pharmacokinetic (PK) profile with a Cmax of about 6 ng/ml, declining thereafter thereafter with a t1/2 of less than 2 hours.

[3] = tested on: serum hepatic transaminases; conditions: in vivo; cited from earlier work
[4] = cited from earlier work
[5] = cited from earlier work; remark: listed apart in the source

For COc1ccc2cccc(CCNC(C)=O)c2c1 [Agomelatine, N-[2-(7-methoxynaphthalen-1-yl)ethyl]acetamide], the solubility ([1]; 0 (water)) was 0.4 mg/mL (≈ 1.64 mM), the solubility ([1]; 25 v/v % aqueous isopropanol, aqueous with cosolvent or surfactant or cyclodextrin, 25 v/v % aqueous IPA) was 3 mg/mL (≈ 12.3 mM) and the solubility ([1]; 50 v/v % aqueous isopropanol, aqueous with cosolvent or surfactant or cyclodextrin, 50 v/v % aqueous IPA) was 51 mg/mL (≈ 210 mM). For the same compound, the solubility ([1]; 75 v/v % aqueous isopropanol, aqueous with cosolvent or surfactant or cyclodextrin, 75 v/v % aqueous IPA) was 139 mg/mL (≈ 571 mM), the solubility ([1]; 90 v/v % aqueous isopropanol, aqueous with cosolvent or surfactant or cyclodextrin, 90 v/v % aqueous IPA) was > 150 mg/mL and the “systemic delivery of agomelatine after hepatic metabolism” value [2] was 1.25 to 2.5 mg. For the same compound, the “increases in serum hepatic transaminases” value [3] was “as high as three times the upper limit of normal range”, the “individuals with increases in serum hepatic transaminases” value [3] was “up to 1%” and the “bound to plasma protein” value ([4]; in vivo) was 95%. The “plasma half-life (t1/2)” value ([4]; in vivo) was 1 to 2 h, the oral bioavailability ([4]; oral) was 5% and the solubility in water [5] was 0.2 mg/mL (≈ 0.822 mM).
